# Measurements taken from ChEMBL document CHEMBL1201862, “PubChem BioAssay data set” (2004).
#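 Protocol summary: plate cells (96-well), add compound at 5 concentrations, incubate 48 h, interpolate endpoints linearly. GI50 is the concentration that inhibits growth by half.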 Activity calls are given as the source filed them. No stated cut-off is given here; in the data, active = GI50 up to about 1.1 µM and inactive = higher.
# Tests used:
# Assay in all cases: DTP human tumour cell line panel, 48 h
# UACC-62 = tested on: UACC-62
# CCRF-CEM = tested on: CCRF-CEM
# CAKI-1 = tested on: CAKI-1
# SK-MEL-5 = tested on: SK-MEL-5
# SK-MEL-28 = tested on: SK-MEL-28
# NCI-H23 = tested on: NCI-H23
# SK-MEL-2 = tested on: SK-MEL-2
# DMS-114 = tested on: DMS-114
# A498 = tested on: A498
# UO-31 = tested on: UO-31
# SK-OV-3 = tested on: SK-OV-3
# SNB-19 = tested on: SNB-19
# EKVX = tested on: EKVX
# NCI-H226 = tested on: NCI-H226
# HT-29 = tested on: HT-29
# M19-MEL = tested on: M19-MEL
# NCI-H522 = tested on: NCI-H522
# HOP-92 = tested on: HOP-92
# NCI-H460 = tested on: NCI-H460
# OVCAR-8 = tested on: OVCAR-8
# OVCAR-5 = tested on: OVCAR-5
# DLD-1 = tested on: DLD-1
# UACC-257 = tested on: UACC-257
# HOP-18 = tested on: HOP-18
# U-251 = tested on: U-251
# IGROV-1 = tested on: IGROV-1
# HOP-62 = tested on: HOP-62
# SF-268 = tested on: SF-268
# MCF7 = tested on: MCF7
# SF-539 = tested on: SF-539
# NCI/ADR-RES = tested on: NCI/ADR-RES
# A549 = tested on: A549
# OVCAR-3 = tested on: OVCAR-3
# HL-60 = tested on: HL-60
# HCT-15 = tested on: HCT-15
# K562 = tested on: K562
# LOX IMVI = tested on: LOX IMVI
# XF498 = tested on: XF498
# RPMI-8226 = tested on: RPMI-8226
# KM12 = tested on: KM12
# DMS-273 = tested on: DMS-273
# SN12C = tested on: SN12C
# HCT-116 = tested on: HCT-116
# MOLT-4 = tested on: MOLT-4
# COLO 205 = tested on: COLO 205
# SNB-75 = tested on: SNB-75
# SF-295 = tested on: SF-295
# HCC 2998 = tested on: HCC 2998
# OVCAR-4 = tested on: OVCAR-4
# SW-620 = tested on: SW-620
smiles,measurement,setting,value
O=C(NCCCl)O/N=C/c1cccnc1,GI50,UACC-62,> 100 µM (inactive)
same,GI50,CCRF-CEM,> 100 µM (inactive)
same,GI50,CAKI-1,> 100 µM (inactive)
same,GI50,SK-MEL-5,> 100 µM (inactive)
same,GI50,SK-MEL-28,> 100 µM (inactive)
same,GI50,NCI-H23,> 100 µM (inactive)
same,GI50,SK-MEL-2,> 100 µM (inactive)
same,GI50,DMS-114,> 100 µM (inactive)
same,GI50,A498,> 100 µM (inactive)
same,GI50,UO-31,> 100 µM (inactive)
same,GI50,SK-OV-3,> 100 µM (inactive)
same,GI50,SNB-19,> 100 µM (inactive)
same,GI50,EKVX,> 100 µM (inactive)
same,GI50,NCI-H226,> 100 µM (inactive)
same,GI50,HT-29,> 100 µM (inactive)
same,GI50,M19-MEL,> 100 µM (inactive)
same,GI50,NCI-H522,> 100 µM (inactive)
same,GI50,HOP-92,> 100 µM (inactive)
same,GI50,NCI-H460,> 100 µM (inactive)
same,GI50,OVCAR-8,> 100 µM (inactive)
same,GI50,OVCAR-5,> 100 µM (inactive)
same,GI50,DLD-1,> 100 µM (inactive)
same,GI50,UACC-257,> 100 µM (inactive)
same,GI50,HOP-18,> 100 µM (inactive)
same,GI50,U-251,> 100 µM (inactive)
same,GI50,IGROV-1,> 100 µM (inactive)
same,GI50,HOP-62,> 100 µM (inactive)
same,GI50,SF-268,> 100 µM (inactive)
same,GI50,MCF7,> 100 µM (inactive)
same,GI50,SF-539,> 100 µM (inactive)
same,GI50,NCI/ADR-RES,> 100 µM (inactive)
same,GI50,A549,> 100 µM (inactive)
same,GI50,OVCAR-3,> 100 µM (inactive)
same,GI50,HL-60,> 100 µM (inactive)
same,GI50,HCT-15,> 100 µM
same,GI50,K562,> 100 µM (inactive)
same,GI50,LOX IMVI,> 100 µM (inactive)
same,GI50,XF498,> 100 µM (inactive)
same,GI50,RPMI-8226,> 100 µM (inactive)
same,GI50,KM12,> 100 µM (inactive)
same,GI50,DMS-273,> 100 µM (inactive)
same,GI50,SN12C,> 100 µM (inactive)
same,GI50,HCT-116,> 100 µM (inactive)
same,GI50,MOLT-4,> 100 µM (inactive)
same,GI50,COLO 205,> 100 µM (inactive)
same,GI50,SNB-75,61 µM (inactive)
same,GI50,SF-295,> 100 µM (inactive)
same,GI50,HCC 2998,> 100 µM (inactive)
same,GI50,OVCAR-4,> 100 µM (inactive)
same,GI50,SW-620,> 100 µM (inactive)
